# Key:
# [1] = system: SGK2; type: biochemical, human
# [2] = biological target: T1, SGK2 (Homo sapiens, UniProt Q9HBY8); type: biochemical
# T1 sequence (Q9HBY8 whole entry, looked up): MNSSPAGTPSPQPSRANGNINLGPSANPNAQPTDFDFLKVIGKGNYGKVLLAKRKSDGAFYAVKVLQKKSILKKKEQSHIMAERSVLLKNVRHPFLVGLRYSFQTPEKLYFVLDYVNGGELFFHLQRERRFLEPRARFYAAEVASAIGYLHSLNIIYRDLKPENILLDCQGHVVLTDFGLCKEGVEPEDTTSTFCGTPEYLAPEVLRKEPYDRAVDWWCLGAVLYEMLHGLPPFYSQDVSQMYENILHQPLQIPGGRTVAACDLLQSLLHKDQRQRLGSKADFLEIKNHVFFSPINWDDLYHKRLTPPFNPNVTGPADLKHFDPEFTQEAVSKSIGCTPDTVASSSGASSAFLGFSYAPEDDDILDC
Compound,effect on SGK2 kinase activity [1],incorporation of 32P into peptide substrate [2]
COC[C@@H]([C@H](O)[C@H](O)C(=O)NCC[C@H](C)c1nc(/C=C/C[C@@H]2O[C@]3(C[C@@H](O)[C@@H]2C)O[C@H]([C@H](C[C@H](O)[C@H](C)[C@H](O)[C@H](C)/C=C(C)/C(C)=C/C=C/C(C)=C\C#N)OC)[C@H](OP(=O)(O)O)C3(C)C)co1)N(C)C [Calyculin A],stimulated SGK2 kinase activity,–
C=C1[C@@H](O)[C@@H]2O[C@]3(CC[C@H](/C=C/[C@@H](C)[C@@H]4CC(C)=C[C@@]5(O[C@H](C[C@@](C)(O)C(=O)O)CC[C@H]5O)O4)O3)CC[C@H]2O[C@@H]1[C@@H](O)C[C@H](C)[C@H]1O[C@@]2(CCCCO2)CC[C@H]1C [Okadaic Acid],stimulated SGK2 kinase activity,–
CKRPRAASFAE [PKB-sub],–,significant incorporation
KTFCGTPEYLAPEVRREPRILSEEEQEMFRDFDYI [PDK1 peptide],–,no significant incorporation
